Assays:
[1] = known property named for comparison; cited from earlier work
[2] = known property named for comparison; cited from earlier work; remark: listed apart in the source
[3] = compared with acesulfame potassium salt

Structure (SMILES): CC1=CC(=O)NS(=O)(=O)O1.N [acesulfame ammonium salt]
- difference found by the testers in extensive taste tests (acesulfame ammonium versus acesulfame potassium): no difference was found
- sweet taste [3]: exactly the same pleasant sweet taste as the acesulfame potassium salt
- sweetening power [3]: the same sweetening power as the acesulfame potassium salt
- sweetness profile [3]: exactly the same sweetness profile

Structure (SMILES): CC(=O)O.N [ammonium acetate salt, ammonium acetate]
- hygroscopicity (comparison salt) [1]: hygroscopic

Structure (SMILES): Cl.N [ammonium chloride salt, ammonium chloride]
- salty-bitter taste (comparison salt) [2]: salty-bitter
